Values after ≈ are worked out from the molar mass of the structure shown. Read-outs that look alike come from different tables or passages of the source.
Experiments:
Assay type in all cases: cell-based
Candida albicans = experiment: MIC against Candida albicans; conditions: table prints none
Escherichia coli O157:H7 [1] = experiment: MIC with/without sub-MIC colistin, Escherichia coli O157:H7
Method: (§1) The MIC of the rhodanines and control antibiotics, in the presence of a sub-inhibitory concentration of colistin or polymixin B nonapeptide (PMBN), against Gram-negative bacteria was evaluated as described before. The antibacterial activity of the rhodanines was further investigated against E. coli SM1411Δ acrAB, a strain that is deficient in the multidrug-resistant AcrAB efflux pump, as described before.

Klebsiella pneumoniae [2] = experiment: MIC with/without sub-MIC colistin, Klebsiella pneumoniae
Method: as §1

Salmonella Typhimurium [3] = experiment: MIC with/without PMBN, Salmonella Typhimurium; conditions: Salmonella Typhimurium ATCC 700720, read-out: MIC
Method: as §1

Acinetobacter baumannii [4] = experiment: MIC with/without PMBN, Acinetobacter baumannii; conditions: read-out: MIC
Method: as §1

Acinetobacter baumannii [5] = experiment: MIC with/without sub-MIC colistin, Acinetobacter baumannii; conditions: read-out: MIC
Method: as §1

Pseudomonas aeruginosa [6] = experiment: MIC with/without PMBN, Pseudomonas aeruginosa; conditions: Pseudomonas aeruginosa ATCC 9721, read-out: MIC
Method: as §1

Escherichia coli Δ acrAB = experiment: MIC against E. coli 1411 and AcrAB efflux pump deficient E. coli SM1411Δ acrAB
Method: as §1

Salmonella Typhimurium [7] = experiment: MIC with/without sub-MIC colistin, Salmonella Typhimurium; conditions: Salmonella Typhimurium ATCC 700720, read-out: MIC
Method: as §1

Escherichia coli O157:H7 [8] = experiment: MIC with/without PMBN, Escherichia coli O157:H7
Method: as §1

Klebsiella pneumoniae [9] = experiment: MIC with/without PMBN, Klebsiella pneumoniae
Method: as §1

Pseudomonas aeruginosa [10] = experiment: MIC with/without sub-MIC colistin, Pseudomonas aeruginosa; conditions: Pseudomonas aeruginosa ATCC 921, read-out: MIC
Method: as §1

Clostridium difficile = experiment: MIC against Clostridium difficile, anaerobic broth dilution; conditions: Clostridioides difficile
Method: Clinical isolates of C. difficile were cultured on anaerobic blood agar and incubated anaerobically using container gas pack system at 37° C for 48 hours. The colonies were then suspended in pre-reduced phosphate buffered saline (PBS) and adjusted to 0.5 McFarland standard then diluted 1:300 in pre-reduced Supplemented Brain Heart Infusion broth. The bacterial suspension was then transferred to each well of 96-well plates, the drugs were added to the first row of wells in the required concentrations and serially diluted along the plates. The plates were incubated again anaerobically using container gas pack system at 37° C for 48 hours. The (MIC) recorded was the lowest concentration of the drug showing no visible growth of the bacteria.

[11] = ATCC10231, C. albicans ATCC 10231, unit from abstract, read-out: MIC
[12] = ATCC10231, C. albicans ATCC 10231, unit from abstract, read-out: MIC (second value after the slash)
[13] = C. albicans NR 29434, unit from abstract, read-out: MIC
[14] = C. albicans NR 29434, unit from abstract, read-out: MIC (second value after the slash)
[15] = C. albicans NR 29435, unit from abstract, read-out: MIC
[16] = C. albicans NR 29435, unit from abstract, read-out: MIC (second value after the slash)
[17] = C. albicans NR29437, unit from abstract, read-out: MIC
[18] = C. albicans NR29438, unit from abstract, read-out: MIC
[19] = C. albicans NR29438, unit from abstract, read-out: MIC (second value after the slash)
[20] = C. albicans NR 29446, unit from abstract, read-out: MIC
[21] = C. albicans NR 29448, unit from abstract, read-out: MIC
[22] = C. albicans NR 29449, unit from abstract, read-out: MIC
[23] = C. albicans NR 29449, unit from abstract, read-out: MIC (second value after the slash)
[24] = C. albicans NR 29453, unit from abstract, read-out: MIC
[25] = C. albicans NR 29453, unit from abstract, read-out: MIC (second value after the slash)
[26] = C. albicans NR 294436, unit from abstract, read-out: MIC
[27] = C. albicans NR 294436, unit from abstract, read-out: MIC (second value after the slash)

C[C@@H]1[C@H](O)[C@@H](C)/C=C/C=C/C=C/C=C/C=C/C=C/C=C/[C@H](O[C@@H]2O[C@H](C)[C@@H](O)[C@H](N)[C@@H]2O)C[C@@H]2O[C@](O)(C[C@@H](O)C[C@@H](O)[C@H](O)CC[C@@H](O)C[C@@H](O)CC(=O)O[C@H]1C)C[C@H](O)[C@H]2C(=O)O [Amphotericin B, amphotericin B, reference compound]
MIC (Candida albicans; [11]): 1 µM (≈ 0.924 µg/mL)
MIC (Candida albicans; [12]): 1 µM (≈ 0.924 µg/mL)
MIC (Candida albicans; [13]): 2 µM (≈ 1.85 µg/mL)
MIC (Candida albicans; [14]): 2 µM (≈ 1.85 µg/mL)
MIC (Candida albicans; [15]): 1 µM (≈ 0.924 µg/mL)
MIC (Candida albicans; [16]): 2 µM (≈ 1.85 µg/mL)
MIC (Candida albicans; [17]): 2 µM (≈ 1.85 µg/mL)
MIC (Candida albicans; [18]): 1 µM (≈ 0.924 µg/mL)
MIC (Candida albicans; [19]): 4 µM (≈ 3.7 µg/mL)
MIC (Candida albicans; [20]): 1 µM (≈ 0.924 µg/mL)
MIC (Candida albicans; C. albicans NR 29446, unit from abstract, read-out: MIC (second value after the slash)): 1 µM (≈ 0.924 µg/mL)
MIC (Candida albicans; [21]): 2 µM (≈ 1.85 µg/mL)
MIC (Candida albicans; C. albicans NR 29448, unit from abstract, read-out: MIC (second value after the slash)): 2 µM (≈ 1.85 µg/mL)
MIC (Candida albicans; [22]): 1 µM (≈ 0.924 µg/mL)
MIC (Candida albicans; [23]): 2 µM (≈ 1.85 µg/mL)
MIC (Candida albicans; [24]): 1 µM (≈ 0.924 µg/mL)
MIC (Candida albicans; [25]): 2 µM (≈ 1.85 µg/mL)
MIC (Candida albicans; [26]): 2 µM (≈ 1.85 µg/mL)
MIC (Candida albicans; [27]): 2 µM (≈ 1.85 µg/mL)

CC[C@H]1OC(=O)[C@H](C)[C@@H](O[C@H]2C[C@@](C)(OC)[C@@H](O)[C@H](C)O2)[C@H](C)[C@@H](O[C@@H]2O[C@H](C)C[C@H](N(C)C)[C@H]2O)[C@](C)(O)C[C@@H](C)C(=O)[C@H](C)[C@@H](O)[C@]1(C)O [Erythromycin, erythromycin, reference compound]
MIC (Escherichia coli O157:H7 [1]; Escherichia coli O157:H7 ATCC 35150, colistin (+) […], read-out: MIC): ≤0.5 µM
MIC (Escherichia coli O157:H7 [1]; Escherichia coli O157:H7 ATCC 700728, colistin (+) […], read-out: MIC): ≤0.5 µM
MIC (Escherichia coli O157:H7 [1]; Escherichia coli, ATCC35150): 32 µM (≈ 23.5 µg/mL)
MIC (Escherichia coli O157:H7 [1]; Escherichia coli, ATCC700728): 32 µM (≈ 23.5 µg/mL)
MIC (Klebsiella pneumoniae [2]; Klebsiella pneumoniae ATCC BAA 2146, colistin (+) […]): >64 µM
MIC (Klebsiella pneumoniae [2]; Klebsiella pneumoniae, BAA2146): > 128 µM
MIC (Salmonella Typhimurium [3]; PMBN (+) 4 μg/mL): 4 µM (≈ 2.94 µg/mL)
MIC (Salmonella Typhimurium [3]; Salmonella enterica, ATCC 700720 / TYPHIMURIUM, PMBN (-)): 64 µM (≈ 47 µg/mL)
MIC (Acinetobacter baumannii [4]; ATCCBAA747, Acinetobacter baumannii ATCC BAA747, PMBN (-)): 4 µM (≈ 2.94 µg/mL)
MIC (Acinetobacter baumannii [4]; ATCCBAA19606, Acinetobacter baumannii ATCC BAA19606, PMBN (-)): 16 µM (≈ 11.7 µg/mL)
MIC (Acinetobacter baumannii [4]; Acinetobacter baumannii ATCC BAA747, PMBN (+) 4 μg/mL): ≤0.5 µM
MIC (Acinetobacter baumannii [4]; Acinetobacter baumannii ATCC BAA19606, PMBN (+) 4 μg/mL): 2 µM (≈ 1.47 µg/mL)
MIC (Acinetobacter baumannii [5]; ATCCBAA747, Acinetobacter baumannii ATCC BAA747, colistin (-)): 4 µM (≈ 2.94 µg/mL)
MIC (Acinetobacter baumannii [5]; ATCCBAA19606, Acinetobacter baumannii ATCC BAA19606, colistin (-)): 16 µM (≈ 11.7 µg/mL)
MIC (Acinetobacter baumannii [5]; Acinetobacter baumannii ATCC BAA747, colistin (+) […]): 1 µM (≈ 0.734 µg/mL)
MIC (Acinetobacter baumannii [5]; Acinetobacter baumannii ATCC BAA19606, colistin (+) […]): 2 µM (≈ 1.47 µg/mL)
MIC (Pseudomonas aeruginosa [6]; ATCC9721, PMBN (-)): 64 µM (≈ 47 µg/mL)
MIC (Pseudomonas aeruginosa [6]; PMBN (+) 4 μg/mL): 1 µM (≈ 0.734 µg/mL)
MIC (Escherichia coli Δ acrAB; E.coli 1411): > 64 µM
MIC (Escherichia coli Δ acrAB; E.coli 1411 SM (Δ acrAB, AcrAB efflux pump deficient)): 2 µM (≈ 1.47 µg/mL)
MIC (Salmonella Typhimurium [7]; colistin (+) […]): 16 µM (≈ 11.7 µg/mL)
MIC (Salmonella Typhimurium [7]; Salmonella enterica, ATCC 700720 / TYPHIMURIUM, colistin (-)): 64 µM (≈ 47 µg/mL)
MIC (Escherichia coli O157:H7 [8]; Escherichia coli O157:H7 ATCC 35150, PMBN (+) 4 μg/mL, read-out: MIC): 4 µM (≈ 2.94 µg/mL)
MIC (Escherichia coli O157:H7 [8]; Escherichia coli O157:H7 ATCC 700728, PMBN (+) 4 μg/mL, read-out: MIC): 2 µM (≈ 1.47 µg/mL)
MIC (Escherichia coli O157:H7 [8]; Escherichia coli, ATCC35150): 128 µM (≈ 93.9 µg/mL)
MIC (Escherichia coli O157:H7 [8]; Escherichia coli, ATCC700728): 32 µM (≈ 23.5 µg/mL)
MIC (Klebsiella pneumoniae [9]; Klebsiella pneumoniae ATCC BAA 1706, PMBN (+) 4 μg/mL): 64 µM (≈ 47 µg/mL)
MIC (Klebsiella pneumoniae [9]; Klebsiella pneumoniae ATCC BAA 2146, PMBN (+) 4 μg/mL): >64 µM
MIC (Klebsiella pneumoniae [9]; Klebsiella pneumoniae, BAA1706): > 128 µM
MIC (Klebsiella pneumoniae [9]; Klebsiella pneumoniae, BAA2146): > 128 µM
MIC (Pseudomonas aeruginosa [10]; ATCC921, colistin (-)): 64 µM (≈ 47 µg/mL)
MIC (Pseudomonas aeruginosa [10]; colistin (+) […]): 16 µM (≈ 11.7 µg/mL)

OC(Cn1cncn1)(Cn1cncn1)c1ccc(F)cc1F [Fluconazole, fluconazole, reference compound]
MIC (Candida albicans; [11]): < 0.5 µM
MIC (Candida albicans; [12]): 1 µM (≈ 0.306 µg/mL)
MIC (Candida albicans; [13]): < 0.5 µM
MIC (Candida albicans; [14]): 1 µM (≈ 0.306 µg/mL)
MIC (Candida albicans; [15]): < 0.5 µM
MIC (Candida albicans; [16]): > 64 µM
MIC (Candida albicans; [17]): 1 µM (≈ 0.306 µg/mL)
MIC (Candida albicans; [18]): < 0.5 µM
MIC (Candida albicans; [19]): > 64 µM
MIC (Candida albicans; [20]): > 64 µM
MIC (Candida albicans; [21]): > 64 µM
MIC (Candida albicans; [22]): < 0.5 µM
MIC (Candida albicans; [23]): > 64 µM
MIC (Candida albicans; [24]): < 0.5 µM
MIC (Candida albicans; [25]): < 0.5 µM
MIC (Candida albicans; [26]): < 0.5 µM
MIC (Candida albicans; [27]): > 64 µM

Cc1ncc([N+](=O)[O-])n1CCO [Metronidazole, reference compound]
MIC (Clostridium difficile; C. difficile HM-88): 0.25 µM (≈ 0.0428 µg/mL)
MIC (Clostridium difficile; C. difficile HM-745): 0.5 µM (≈ 0.0856 µg/mL)
MIC (Clostridium difficile; C. difficile HM-746): 0.125 µM (≈ 0.0214 µg/mL)
MIC (Clostridium difficile; C. difficile Isolate-1 NR-13427): 0.25 µM (≈ 0.0428 µg/mL)
MIC (Clostridium difficile; C. difficile Toxigenic Strain P8 NR-32888): 1 µM (≈ 0.171 µg/mL)

Reference: paper PMC5053523, “In Vitro Antibacterial Activity of Rhodanine Derivatives against Pathogenic Clinical Isolates” (PLoS ONE, 2016)
